Paper PMC3108470 (Journal of Medicinal Chemistry, 2011)

Experiments:
[1] = target: ΔF508-CFTR (Homo sapiens, UniProt P13569, DEL508-508); assay: ΔF508-CFTR potentiator assay, HS-YFP fluorescence quenching; type: cell-based; conditions: for nH (Hill coefficient): FRT cells, forskolin 20 μM, Hill fit; for activity on ΔF508-CFTR: inactive up to 20 μM
[2] = system: guinea pig ileum longitudinal smooth muscle; assay: Relaxant activity on K+-depolarized
[3] = system: guinea pig left atrium; assay: Negative inotropic activity in isolated left atrium driven at 1 Hz
[4] = system: guinea pig left atrium; conditions: cited from earlier work; for intrinsic activity, inotropic effect: at the highest concentration studied
[5] = system: guinea pig right atrium; conditions: cited from earlier work; for intrinsic activity, chronotropic effect: at the highest concentration studied
[6] = system: guinea pig aortic strip; assay: Vasorelaxant activity, calcium-induced contraction of K+-depolarized; conditions: result in words

Compound	nH (Hill coefficient) [1]	activity on ΔF508-CFTR [1]	other results
COC(=O)C1=C(C)NC(C)=C(C(=O)OC)C1c1c(-c2ccc(C(F)(F)F)cc2)nc2sccn12 [Compound 17, Dimethyl 2,6-Dimethyl-4-(6-(4-(trifluoromethyl)phenyl)imidazo[2,1-b]thiazol-5-yl)-1,4-dihydropyridine-3,5-dicarboxylate]	2.15	–	negative inotropic effect, times greater than that of nifedipine [3]: about 2.6 times; GPILSM relaxant potency, times less potent than nifedipine [2]: about 3 times
C=CCOC(=O)C1=C(C)NC(C)=C(C(=O)OCC=C)C1c1c(-c2ccc(OC(F)(F)F)cc2)nc2sccn12 [Compound 21, Diallyl 2,6-Dimethyl-4-(6-(4-(trifluoromethoxy)phenyl)imidazo[2,1-b]thiazol-5-yl)-1,4-dihydropyridine-3,5-dicarboxylate]	1.09	–	GPILSM relaxant potency, times less potent than nifedipine [2]: about 3 times
COC(=O)C1=C(C)NC(C)=C(C(=O)OC)C1c1c(-c2ccccc2)nc2n1CCS2 [Compound 23, Dimethyl 2,6-Dimethyl-4-(6-phenyl-2,3-dihydroimidazo[2,1-b]thiazol-5-yl)-1,4-dihydropyridine-3,5-dicarboxylate]	–	inactive ^b	–
CCOC(=O)C1=C(C)NC(C)=C(C(=O)OCC)C1c1c(Cl)nc2sc(C)cn12 [Compound 25, Diethyl 4-(6-Chloro-2-methylimidazo[2,1-b]thiazol-5-yl)-2,6-dimethyl-1,4-dihydropyridine-3,5-dicarboxylate]	0.86	–	GPILSM relaxant potency, times less potent than nifedipine [2]: about 65 times
COC(=O)C1=C(C)NC(C)=C(C(=O)OC)C1c1c(C(F)(F)F)nc2sc(C)cn12 [Compound 28]	0.88	–	GPILSM relaxant potency, times less potent than nifedipine [2]: about 65 times; intrinsic activity, inotropic effect [4]: less than 50%; intrinsic activity, chronotropic effect [5]: < 40%
COC(=O)C1=C(C)NC(C)=C(C(=O)OC)C1c1c(C)nc2sc(Cl)cn12 [Compound 29]	1.55	–	negative inotropic effect, times greater than that of nifedipine [3]: about 2.6 times
COC(=O)C1=C(C)NC(C)=C(C(=O)OC)C1c1c(C)nc2sc(C)cn12 [Compound 30]	–	inactive ^b	intrinsic activity, inotropic effect [4]: less than 50%; intrinsic activity, chronotropic effect [5]: < 40%
COC(=O)C1=C(C)NC(C)=C(C(=O)OC)C1c1c(Cl)nc2sc(Cl)cn12 [Compound 31]	1.04	–	negative inotropic effect, times greater than that of nifedipine [3]: about 2.6 times
COC(=O)C1=C(C)NC(C)=C(C(=O)OC)C1c1c(Cl)nc2sc(C)cn12 [Compound 32]	–	inactive ^b	–
COC(=O)C1=C(C)NC(C)=C(C(=O)OC)C1c1c(Cl)nc2scc(C)n12 [Compound 33]	0.82	–	negative inotropic effect, times greater than that of nifedipine [3]: about 2.6 times
COC(=O)C1=C(C)NC(C)=C(C(=O)OC)C1c1c(Cl)nc2sc(C)c(C)n12 [Compound 34]	1.32	–	–
COC(=O)C1=C(C)NC(C)=C(C(=O)OC)C1c1c(-c2ccccc2OC(F)(F)F)nc2sccn12 [Compound 37]	–	inactive ^b	–
COC(=O)C1=C(C)NC(C)=C(C(=O)OC)C1c1c(-c2cccc(OC(F)(F)F)c2)nc2sccn12 [Compound 38]	0.81	–	GPILSM relaxant potency, times less potent than nifedipine [2]: about 65 times
COC(=O)C1=C(C)NC(C)=C(C(=O)OC)C1c1c(-c2ccc(OC)c(OC)c2)nc2sccn12 [Compound 43]	–	inactive ^b	–
COC(=O)C1=C(C)NC(C)=C(C(=O)OC)C1c1c(-c2cc(OC)c(OC)c(OC)c2)nc2sc(Cl)cn12 [Compound 44]	–	inactive ^b	intrinsic activity, inotropic effect [4]: less than 50%; intrinsic activity, chronotropic effect [5]: < 40%
COC(=O)C1=C(C)NC(C)=C(C(=O)OC)C1c1c(-c2c(OC)ccc(OC)c2[N+](=O)[O-])nc2sccn12 [Compound 46]	–	inactive ^b	–
O=c1c(-c2ccc(O)cc2)coc2cc(O)cc(O)c12 [genistein, reference compound]	1.3	–	vascular effect in K+-depolarized (80 mM) vascular smooth muscle [6]: inactive; inotropic activity ([4]; up to 10 μM): positive inotropic activity
COC(=O)C1=C(C)NC(C)=C(C(=O)OC)C1c1ccccc1[N+](=O)[O-] [nifedipine, reference compound]	2.58	–	potency increase in nonvascular smooth muscle compared to aortic strips ([2]; GPILSM vs aortic strips): 6 times

Continued, in another order:

nH (Hill coefficient) [1]	activity on ΔF508-CFTR [1]	Compound	other results
0.66	–	CCOC(=O)C1=C(C)NC(C)=C(C(=O)OCC)C1c1c(C(F)(F)F)nc2sccn12 [Compound 16, Diethyl 2,6-Dimethyl-4-(6-(trifluoromethyl)imidazo[2,1-b]thiazol-5-yl)-1,4-dihydropyridine-3,5-dicarboxylate]	GPILSM relaxant potency, times less potent than nifedipine [2]: about 65 times
1.69	–	CCOC(=O)C1=C(C)NC(C)=C(C(=O)OCC)C1c1c(-c2ccc(C(F)(F)F)cc2)nc2sccn12 [Compound 18, Diethyl 2,6-Dimethyl-4-(6-(4-(trifluoromethyl)phenyl)imidazo[2,1-b]thiazol-5-yl)-1,4-dihydropyridine-3,5-dicarboxylate]	–
1.14	–	C=CCOC(=O)C1=C(C)NC(C)=C(C(=O)OCC=C)C1c1c(-c2ccc(C(F)(F)F)cc2)nc2sc(C)c(C)n12 [Compound 19, Diallyl 4-(2,3-Dimethyl-6-(4-(trifluoromethyl)phenyl)imidazo[2,1-b]thiazol-5-yl)-2,6-dimethyl-1,4-dihydropyridine-3,5-dicarboxylate]	negative inotropic over chronotropic selectivity ratio ([3]; EC50 chronotropic / EC50 inotropic): about 33 fold
1.8	–	COC(=O)C1=C(C)NC(C)=C(C(=O)OC)C1c1c(-c2ccc(OC(F)(F)F)cc2)nc2sccn12 [Compound 20, Dimethyl 2,6-Dimethyl-4-(6-(4-(trifluoromethoxy)phenyl)imidazo[2,1-b]thiazol-5-yl)-1,4-dihydropyridine-3,5-dicarboxylate]	GPILSM relaxant potency, times less potent than nifedipine [2]: about 3 times
0.93	–	CCOC(=O)C1=C(C)NC(C)=C(C(=O)OCC)C1c1c(-c2ccccc2)nc2sc(C)cn12 [Compound 22, Diethyl 2,6-Dimethyl-4-(2-methyl-6-phenylimidazo[2,1-b]thiazol-5-yl)-1,4-dihydropyridine-3,5-dicarboxylate]	–
–	inactive ^b	C=CCOC(=O)C1=C(C)NC(C)=C(C(=O)OCC=C)C1c1c(-c2cc(OC)ccc2OC)nc2sccn12 [Compound 24, Diallyl 4-(6-(2,5-Dimethoxyphenyl)imidazo[2,1-b]thiazol-5-yl)-2,6-dimethyl-1,4-dihydropyridine-3,5-dicarboxylate]	–
0.44	–	CCOC(=O)C1=C(C)NC(C)=C(C(=O)OCC)C1c1c(-c2ccc(Cl)c(Cl)c2Cl)nc2sccn12 [Compound 26, Diethyl 2,6-Dimethyl-4-(6-(2,3,4-trichlorophenyl)imidazo[2,1-b]thiazol-5-yl)-1,4-dihydropyridine-3,5-dicarboxylate]	GPILSM relaxant potency, times less potent than nifedipine [2]: about 65 times
1.89	–	COC(=O)C1=C(C)NC(C)=C(C(=O)OC)C1c1c(C(F)(F)F)nc2sccn12 [Compound 27]	–
–	inactive ^b	COC(=O)C1=C(C)NC(C)=C(C(=O)OC)C1c1c(-c2ccccc2OC)nc2sccn12 [Compound 35]	–
1.5	–	COC(=O)C1=C(C)NC(C)=C(C(=O)OC)C1c1c(-c2cccc(OC)c2)nc2sccn12 [Compound 36]	GPILSM relaxant potency, times less potent than nifedipine [2]: about 65 times
1.01	–	COC(=O)C1=C(C)NC(C)=C(C(=O)OC)C1c1c(-c2cccc(C(F)(F)F)c2)nc2sccn12 [Compound 39]	GPILSM relaxant potency, times less potent than nifedipine [2]: about 65 times
–	inactive ^b	COC(=O)C1=C(C)NC(C)=C(C(=O)OC)C1c1c(-c2cc(OC)ccc2OC)nc2sc(C)cn12 [Compound 40]	–
–	inactive ^b	COC(=O)C1=C(C)NC(C)=C(C(=O)OC)C1c1c(-c2cc(OC)ccc2OC)nc2sc(Cl)cn12 [Compound 41]	–
–	inactive ^b	CCc1cn2c(C3C(C(=O)OC)=C(C)NC(C)=C3C(=O)OC)c(-c3cc(OC)ccc3OC)nc2s1 [Compound 42]	–
–	inactive ^b	COC(=O)C1=C(C)NC(C)=C(C(=O)OC)C1c1c(-c2cc(OC)c([N+](=O)[O-])cc2OC)nc2sc(Cl)cn12 [Compound 45]	GPILSM relaxant potency, times less potent than nifedipine [2]: about 65 times; EC50 ([5]; read-out: EC50 of chronotropic negative activity, Probit analysis, ref RS1): 18.5 µM
–	inactive ^b	COC(=O)C1=C(C)NC(C)=C(C(=O)OC)C1c1c(-c2cc(OC)c(OC)cc2[N+](=O)[O-])nc2sccn12 [Compound 47]	–
0.97	–	CCOC(=O)C1=C(C)NC(C)=C(C(=O)OCC)C1c1cccc(Oc2ccccc2)c1 [Compound 48, reference compound]	–
3.58	–	C=CCOC(=O)C1=C(C)NC(C)=C(C(=O)OCC=C)C1c1ccc(C(C)(C)C)cc1 [Compound 49, reference compound]	–
1.18	–	C=CCOC(=O)C1=C(C)NC(C)=C(C(=O)OCC=C)C1/C=C/c1ccccc1OC [Compound 50, reference compound]	–
